Values after ≈ are worked out from the molar mass of the structure shown.
What was measured:
[1] = tested on: Escherichia coli (E. coli) BAS849; assay: Antibacterial activity, microbroth dilution MIC (Table 1); format: cell-based; settings: microbroth dilution, super sensitive Gram-negative E. coli BAS849, read-out: MIC, BAS849
In short: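 Microbroth dilution was used. MIC, in μg/mL, is the lowest drug concentration preventing macroscopically visible growth under the test conditions.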

[2] = tested on: Staphylococcus aureus (S. aureus) 29213; assay: as above; format: cell-based; settings: microbroth dilution, Gram-positive S. aureus 29213, read-out: MIC, 29213
In short: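 MIC (μg/mL) is taken as the lowest concentration with no macroscopically visible growth. Strains tested by microbroth dilution: Gram-positive S. aureus 29213, control Gram-negative E. coli 25922, and super-sensitive E. coli BAS849.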

E. coli 25922 = assay: as above; format: cell-based, Escherichia coli; settings: Escherichia coli; microbroth dilution; control Gram-negative E. coli 25922 strain; read-out: MIC, 25922
In short: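 Lowest concentration stopping macroscopically visible growth under test conditions, by broth microdilution, defines the MIC (μg/mL).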

E. coli LZ3111 = assay: Antibacterial activity, MIC, quinolone resistant strain (Table 2); format: cell-based; settings: Escherichia coli, LZ3111, read-out: MIC LZ3111
In short: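 MIC values (μg/mL) came from a microbroth dilution assay, scored as the lowest drug concentration at which no growth was visible by eye.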

E. coli ELZ4000 = assay: Antibacterial activity, MIC, multi-drug resistant clinical isolate (Table 3); format: cell-based; settings: Escherichia coli, ELZ4000, read-out: MIC ELZ4000
Source text: (§1) The antibacterial activity from a microbroth dilution method may be presented as the minimum inhibitory concentration (MIC in μg/mL). The MIC value is the lowest concentration of drug which prevents macroscopically visible growth under test conditions.
(§2) Antibacterial activity of test compounds against E. coli ELZ4000 and E. coli ELZ4251 multi-drug resistant clinical isolates is shown in Table 3.

E. coli ELZ4251 = assay: as above; format: cell-based; settings: Escherichia coli
Source text: as §1, §2

[3] = tested on: Acinetobacter baumannii (A. baumannii) BAA747; assay: Antibacterial activity, MIC (Table 4); format: cell-based; settings: A. baumannii BAA747, read-out: MIC, BAA747
In short: (§3)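 Activity was measured by microbroth dilution. The MIC, in μg/mL, is the lowest drug concentration that prevents macroscopically visible growth under the test conditions. The resistant strains are multi-drug resistant clinical isolates.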

[4] = tested on: Pseudomonas aeruginosa (P. aeruginosa) 27853; assay: Antibacterial activity, MIC (Table 5); format: cell-based; settings: P. aeruginosa 27853, read-out: MIC, 27853
In short: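 Values are MICs in μg/mL, read as the lowest concentration at which no growth is visible by eye. They were determined by a microbroth dilution method.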

A. baumannii MXX2240 = assay: Antibacterial activity, MIC, resistant strain (Table 4); format: cell-based; settings: Acinetobacter baumannii, MXX2240; resistant A. baumannii MMX2240, multi-drug resistant clinical isolate; read-out: MIC, MMX2240
In short: as §3

K. pneumoniae MXX1232 = assay: as above; format: cell-based; settings: Klebsiella pneumoniae, MXX1232; resistant K. pneumoniae MMX1232, multi-drug resistant clinical isolate; read-out: MIC, MMX1232
In short: as §3

Structure (SMILES)	MIC [1]	MIC [2]	MIC (E. coli 25922)	MIC (E. coli LZ3111)	MIC (E. coli ELZ4000)	MIC (E. coli ELZ4251)	MIC [3]	MIC [4]	MIC (A. baumannii MXX2240)	MIC (K. pneumoniae MXX1232)
CCc1c(-c2ccc3c(c2)cc(CNCCN(C)C)n3C)[nH]c(=O)c(C(=O)O)c1O [Cpd 302, 6-(2-((2-(dimethylamino)ethylamino)methyl)-1-methyl-1H-indol-5-yl)-5-ethyl-4-hydroxy-2-oxo-1,2-dihydropyridine-3-carboxylic acid]	< 1 µg/mL	12.5 to 150 µg/mL (≈ 30.3 to 364 µM)	1 to 3.5 µg/mL (≈ 2.42 to 8.49 µM)	3.5 to 12.5 µg/mL (≈ 8.49 to 30.3 µM)	12.5 to 150 µg/mL (≈ 30.3 to 364 µM)	3.5 to 12.5 µg/mL (≈ 8.49 to 30.3 µM)	3.5 to 12.5 µg/mL (≈ 8.49 to 30.3 µM)	12.5 to 150 µg/mL (≈ 30.3 to 364 µM)		
Cn1c(CNCC2CC2)cc2cc(-c3[nH]c(=O)c(C(=O)O)c(O)c3C3CC3)ccc21 [Cpd 325, 5-cyclopropyl-6-(2-((cyclopropylmethylamino)methyl)-1-methyl-1H-indol-5-yl)-4-hydroxy-2-oxo-1,2-dihydropyridine-3-carboxylic acid]	3.5 to 12.5 µg/mL (≈ 8.59 to 30.7 µM)	12.5 to 150 µg/mL (≈ 30.7 to 368 µM)	12.5 to 150 µg/mL (≈ 30.7 to 368 µM)	3.5 to 12.5 µg/mL (≈ 8.59 to 30.7 µM)	3.5 to 12.5 µg/mL (≈ 8.59 to 30.7 µM)	1 to 3.5 µg/mL (≈ 2.45 to 8.59 µM)	12.5 to 150 µg/mL (≈ 30.7 to 368 µM)	12.5 to 150 µg/mL (≈ 30.7 to 368 µM)		
CCc1c(-c2ccc3c(c2)cc(CN(C)C2CCNCC2)n3C)[nH]c(=O)c(C(=O)O)c1O [Cpd 261, 5-ethyl-4-hydroxy-6-(1-methyl-2-((methyl(piperidin-4-yl)amino)methyl)-1H-indol-5-yl)-2-oxo-1,2-dihydropyridine-3-carboxylic acid]	1 to 3.5 µg/mL (≈ 2.28 to 7.98 µM)	12.5 to 150 µg/mL (≈ 28.5 to 342 µM)	3.5 to 12.5 µg/mL (≈ 7.98 to 28.5 µM)	3.5 to 12.5 µg/mL (≈ 7.98 to 28.5 µM)	12.5 to 150 µg/mL (≈ 28.5 to 342 µM)	12.5 to 150 µg/mL (≈ 28.5 to 342 µM)		12.5 to 150 µg/mL (≈ 28.5 to 342 µM)		
CCc1c(-c2ccc3c(c2)cc(CN2CC4CC2CN4)n3C)[nH]c(=O)c(C(=O)O)c1O (stereo not shown) [Cpd 182, 6-(2-(2,5-diazabicyclo[2.2.1]heptan-2-ylmethyl)-1-methyl-1H-indol-5-yl)-5-ethyl-4-hydroxy-2-oxo-1,2-dihydropyridine-3-carboxylic acid]	1 to 3.5 µg/mL (≈ 2.37 to 8.28 µM)	12.5 to 150 µg/mL (≈ 29.6 to 355 µM)	12.5 to 150 µg/mL (≈ 29.6 to 355 µM)	3.5 to 12.5 µg/mL (≈ 8.28 to 29.6 µM)	12.5 to 150 µg/mL (≈ 29.6 to 355 µM)	12.5 to 150 µg/mL (≈ 29.6 to 355 µM)		12.5 to 150 µg/mL (≈ 29.6 to 355 µM)		
CCc1c(-c2ccc3c(c2)cc(CNCc2ccccn2)n3C)[nH]c(=O)c(C(=O)O)c1O.Cl [Cpd 219, 5-ethyl-4-hydroxy-6-(1-methyl-2-((pyridin-2-ylmethylamino)methyl)-1H-indol-5-yl)-2-oxo-1,2-dihydropyridine-3-carboxylic acid hydrochloride]	< 1 µg/mL	1 to 3.5 µg/mL	1 to 3.5 µg/mL	3.5 to 12.5 µg/mL	12.5 to 150 µg/mL	12.5 to 150 µg/mL		12.5 to 150 µg/mL		
CCc1c(-c2ccc3c(ccn3CCO)c2)[nH]c(=O)c(C(=O)O)c1O [Cpd 24, 5-ethyl-4-hydroxy-6-(1-(2-hydroxyethyl)-1H-indol-5-yl)-2-oxo-1,2-dihydropyridine-3-carboxylic acid]	< 1 µg/mL	3.5 to 12.5 µg/mL (≈ 10.2 to 36.5 µM)	3.5 to 12.5 µg/mL (≈ 10.2 to 36.5 µM)	12.5 to 150 µg/mL (≈ 36.5 to 438 µM)	12.5 to 150 µg/mL (≈ 36.5 to 438 µM)	12.5 to 150 µg/mL (≈ 36.5 to 438 µM)	3.5 to 12.5 µg/mL (≈ 10.2 to 36.5 µM)		12.5 to 150 µg/mL (≈ 36.5 to 438 µM)	12.5 to 150 µg/mL (≈ 36.5 to 438 µM)
CCc1c(-c2ccc3c(c2)cc(CN2C[C@H]4C[C@@H](N)C[C@H]4C2)n3C)[nH]c(=O)c(C(=O)O)c1O [Cpd 287, 6-(2-(((3aR,5r,6aS)-5-aminohexahydrocyclopenta[c]pyrrol-2(1H)-yl)methyl)-1-methyl-1H-indol-5-yl)-5-ethyl-4-hydroxy-2-oxo-1,2-dihydropyridine-3-carboxylic acid]	< 1 µg/mL	3.5 to 12.5 µg/mL (≈ 7.77 to 27.7 µM)	3.5 to 12.5 µg/mL (≈ 7.77 to 27.7 µM)	3.5 to 12.5 µg/mL (≈ 7.77 to 27.7 µM)	12.5 to 150 µg/mL (≈ 27.7 to 333 µM)	12.5 to 150 µg/mL (≈ 27.7 to 333 µM)		12.5 to 150 µg/mL (≈ 27.7 to 333 µM)		
Cn1c(CN2CCCC2)cc2cc(-c3[nH]c(=O)c(C(=O)O)c(O)c3C3CC3)ccc21 [Cpd 323, 5-cyclopropyl-4-hydroxy-6-(1-methyl-2-(pyrrolidin-1-ylmethyl)-1H-indol-5-yl)-2-oxo-1,2-dihydropyridine-3-carboxylic acid]	1 to 3.5 µg/mL (≈ 2.45 to 8.59 µM)	12.5 to 150 µg/mL (≈ 30.7 to 368 µM)	12.5 to 150 µg/mL (≈ 30.7 to 368 µM)	3.5 to 12.5 µg/mL (≈ 8.59 to 30.7 µM)	12.5 to 150 µg/mL (≈ 30.7 to 368 µM)	3.5 to 12.5 µg/mL (≈ 8.59 to 30.7 µM)	12.5 to 150 µg/mL (≈ 30.7 to 368 µM)	12.5 to 150 µg/mL (≈ 30.7 to 368 µM)		
